Assay results reported in PubChem BioAssay AID2060901 (Molecular Pharmacology Branch, DTP, NCI, 2025).

Tested on: 422866-222-R5-J1-PDC complex spheroids viability
Experiment: Anticancer human tumor 422866-222-R5-J1-PDC patient-derived pancreatic adenocarcinoma cell line growth inhibition [RAS]
Conditions: for IC50: curve of first compound; for viability, T/C: stronger effect = lower value; active means viability on the fitted dose curve at most 10% of control; inactive means the rest
In short: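 Tumour cells grown as complex spheroids with HUVEC endothelial cells and mesenchymal stem cells, treated with RAS pathway inhibitor combinations. Each agent spans half-log steps from near clinical Cmax, or 10 microM where Cmax is unknown.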

[1] = second compound 0.000949 µM, first compound 0.0316 µM
[2] = second compound 0.000949 µM, first compound 0.1 µM
[3] = second compound 0.000949 µM, first compound 0.316 µM
[4] = second compound 0.000949 µM, first compound 1 µM
[5] = second compound 0.000949 µM, first compound 3.16 µM
[6] = second compound 0.000949 µM, first compound 10 µM
[7] = second compound 0.003 µM, first compound 0.0316 µM
[8] = second compound 0.003 µM, first compound 0.1 µM
[9] = second compound 0.003 µM, first compound 0.316 µM
[10] = second compound 0.003 µM, first compound 1 µM
[11] = second compound 0.003 µM, first compound 3.16 µM
[12] = second compound 0.003 µM, first compound 10 µM
[13] = second compound 0.00949 µM, first compound 0.0316 µM
[14] = second compound 0.00949 µM, first compound 0.1 µM
[15] = second compound 0.00949 µM, first compound 0.316 µM
[16] = second compound 0.00949 µM, first compound 1 µM
[17] = second compound 0.00949 µM, first compound 3.16 µM
[18] = second compound 0.00949 µM, first compound 10 µM
[19] = second compound 0.03 µM, first compound 0.0316 µM
[20] = second compound 0.03 µM, first compound 0.1 µM
[21] = second compound 0.03 µM, first compound 0.316 µM
[22] = second compound 0.03 µM, first compound 1 µM
[23] = second compound 0.03 µM, first compound 3.16 µM
[24] = second compound 0.03 µM, first compound 10 µM
[25] = second compound 0.0949 µM, first compound 0.0316 µM
[26] = second compound 0.0949 µM, first compound 0.1 µM
[27] = second compound 0.0949 µM, first compound 0.316 µM
[28] = second compound 0.0949 µM, first compound 1 µM
[29] = second compound 0.0949 µM, first compound 3.16 µM
[30] = second compound 0.0949 µM, first compound 10 µM
[31] = second compound 0.3 µM, first compound 0.0316 µM
[32] = second compound 0.3 µM, first compound 0.1 µM
[33] = second compound 0.3 µM, first compound 0.316 µM
[34] = second compound 0.3 µM, first compound 1 µM
[35] = second compound 0.3 µM, first compound 3.16 µM
[36] = second compound 0.3 µM, first compound 10 µM
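Further: spheroids exposed to compounds for 7 days.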
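Wherever viability, T/C is given: 100% = DMSO vehicle control viability.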

CC1(O)CCCC1n1c(=O)c(C(F)F)cc2cnc(NC3CCN(S(C)(=O)=O)CC3)nc21 (stereo not given) + CCn1c(-c2cc(N3CCN(C)CC3)cnc2C(C)OC)c2c3cc(ccc31)-c1csc(n1)CC(NC(=O)C1CC1C)C(=O)N1CCCC(N1)C(=O)OCC(C)(C)C2
< 31.6 nM: IC50 (second compound 0.000949 µM) | IC50 (second compound 0.003 µM) | IC50 (second compound 0.00949 µM) | IC50 (second compound 0.03 µM) | IC50 (second compound 0.0949 µM) | IC50 (second compound 0.3 µM)
inactive: viability, T/C [1] 30% | viability, T/C [2] 30.3% | viability, T/C [3] 34.5% | viability, T/C [4] 34% | viability, T/C [5] 38% | viability, T/C [6] 40.2% | viability, T/C [7] 27.9% | viability, T/C [8] 25.8% | viability, T/C [9] 26.4% | viability, T/C [10] 30.1% | viability, T/C [11] 32.5% | viability, T/C [12] 49.2% | viability, T/C [13] 23% | viability, T/C [14] 20.7% | viability, T/C [15] 22.4% | viability, T/C [16] 23.3% | viability, T/C [17] 26% | viability, T/C [18] 28.8% | viability, T/C [19] 18.8% | viability, T/C [20] 19.8% | viability, T/C [21] 22.8% | viability, T/C [22] 20.4% | viability, T/C [23] 29.8% | viability, T/C [24] 44.2% | viability, T/C [25] 19.3% | viability, T/C [26] 22.8% | viability, T/C [27] 21.2% | viability, T/C [28] 24% | viability, T/C [29] 24.9% | viability, T/C [30] 47% | viability, T/C [31] 18.9% | viability, T/C [32] 21.1% | viability, T/C [33] 23.3% | viability, T/C [34] 22.4% | viability, T/C [35] 29.6% | viability, T/C [36] 50.5%

CCC(CC)c1cc(NC2CCC(N)C2)n2nccc2n1 (stereo not given) + CCn1c(-c2cc(N3CCN(C)CC3)cnc2C(C)OC)c2c3cc(ccc31)-c1csc(n1)CC(NC(=O)C1CC1C)C(=O)N1CCCC(N1)C(=O)OCC(C)(C)C2
< 31.6 nM: IC50 (second compound 0.000949 µM) | IC50 (second compound 0.003 µM) | IC50 (second compound 0.00949 µM) | IC50 (second compound 0.03 µM) | IC50 (second compound 0.0949 µM) | IC50 (second compound 0.3 µM)
inactive: viability, T/C [1] 36.1% | viability, T/C [2] 34.6% | viability, T/C [3] 36.9% | viability, T/C [4] 38.4% | viability, T/C [5] 15.5% | viability, T/C [6] 51.6% | viability, T/C [7] 22.1% | viability, T/C [8] 24.1% | viability, T/C [9] 24.7% | viability, T/C [10] 27.2% | viability, T/C [11] 15.2% | viability, T/C [12] 50.2% | viability, T/C [13] 23.4% | viability, T/C [14] 24.7% | viability, T/C [15] 23.6% | viability, T/C [16] 25.8% | viability, T/C [17] 17.8% | viability, T/C [18] 46.1% | viability, T/C [19] 20.7% | viability, T/C [20] 20.4% | viability, T/C [21] 24.9% | viability, T/C [22] 27.7% | viability, T/C [23] 17.4% | viability, T/C [24] 57.6% | viability, T/C [25] 21.6% | viability, T/C [26] 22.1% | viability, T/C [27] 26.9% | viability, T/C [28] 32.8% | viability, T/C [29] 18.4% | viability, T/C [30] 49.6% | viability, T/C [31] 22.4% | viability, T/C [32] 22.3% | viability, T/C [33] 25.7% | viability, T/C [34] 32.3% | viability, T/C [35] 22.3% | viability, T/C [36] 51.4%

CCN1CCN(Cc2ccc(Nc3ncc(F)c(-c4cc(F)c5nc(C)n(C(C)C)c5c4)n3)nc2)CC1 + CCn1c(-c2cc(N3CCN(C)CC3)cnc2C(C)OC)c2c3cc(ccc31)-c1csc(n1)CC(NC(=O)C1CC1C)C(=O)N1CCCC(N1)C(=O)OCC(C)(C)C2
< 3.16 nM: IC50 (second compound 0.000949 µM) | IC50 (second compound 0.003 µM) | IC50 (second compound 0.00949 µM) | IC50 (second compound 0.03 µM) | IC50 (second compound 0.0949 µM) | IC50 (second compound 0.3 µM)
inactive: viability, T/C (second compound 0.000949 µM, first compound 0.00316 µM) 34.5% | viability, T/C (second compound 0.000949 µM, first compound 0.01 µM) 29.8% | viability, T/C [1] 26.8% | viability, T/C [2] 29.4% | viability, T/C [3] 29.5% | viability, T/C [4] 43.6% | viability, T/C (second compound 0.003 µM, first compound 0.00316 µM) 25.6% | viability, T/C (second compound 0.003 µM, first compound 0.01 µM) 21.5% | viability, T/C [7] 21.9% | viability, T/C [8] 22.6% | viability, T/C [9] 25% | viability, T/C [10] 34.7% | viability, T/C (second compound 0.00949 µM, first compound 0.00316 µM) 18.7% | viability, T/C (second compound 0.00949 µM, first compound 0.01 µM) 17.4% | viability, T/C [13] 18.3% | viability, T/C [14] 16.3% | viability, T/C [15] 23.1% | viability, T/C [16] 28.6% | viability, T/C (second compound 0.03 µM, first compound 0.00316 µM) 18.9% | viability, T/C (second compound 0.03 µM, first compound 0.01 µM) 22.9% | viability, T/C [19] 17.6% | viability, T/C [20] 17.3% | viability, T/C [21] 21.8% | viability, T/C [22] 31.1% | viability, T/C (second compound 0.0949 µM, first compound 0.00316 µM) 19.7% | viability, T/C (second compound 0.0949 µM, first compound 0.01 µM) 18.4% | viability, T/C [25] 18.8% | viability, T/C [26] 17.9% | viability, T/C [27] 24.5% | viability, T/C [28] 31.4% | viability, T/C (second compound 0.3 µM, first compound 0.00316 µM) 17.9% | viability, T/C (second compound 0.3 µM, first compound 0.01 µM) 19.8% | viability, T/C [31] 20.9% | viability, T/C [32] 19.1% | viability, T/C [33] 25.9% | viability, T/C [34] 33.5%

Cc1nc(N2CCC3(CC2)COC(C)C3N)c(CO)nc1Sc1ccnc(N)c1Cl (stereo not given) + CCn1c(-c2cc(N3CCN(C)CC3)cnc2C(C)OC)c2c3cc(ccc31)-c1csc(n1)CC(NC(=O)C1CC1C)C(=O)N1CCCC(N1)C(=O)OCC(C)(C)C2
< 31.6 nM: IC50 (second compound 0.000949 µM) | IC50 (second compound 0.003 µM) | IC50 (second compound 0.00949 µM) | IC50 (second compound 0.03 µM) | IC50 (second compound 0.0949 µM) | IC50 (second compound 0.3 µM)
inactive: viability, T/C [1] 29.3% | viability, T/C [2] 23.1% | viability, T/C [3] 21.6% | viability, T/C [4] 17.4% | viability, T/C [5] 18.1% | viability, T/C [6] 20.2% | viability, T/C [7] 23.6% | viability, T/C [8] 18.5% | viability, T/C [9] 16.3% | viability, T/C [10] 16.7% | viability, T/C [11] 18.1% | viability, T/C [12] 21.2% | viability, T/C [13] 19.2% | viability, T/C [14] 16.1% | viability, T/C [15] 19.1% | viability, T/C [16] 15.8% | viability, T/C [17] 20.8% | viability, T/C [18] 22.1% | viability, T/C [19] 17.4% | viability, T/C [20] 16.3% | viability, T/C [21] 18.6% | viability, T/C [22] 17.5% | viability, T/C [23] 20.3% | viability, T/C [24] 20.4% | viability, T/C [25] 21% | viability, T/C [26] 20.6% | viability, T/C [27] 20% | viability, T/C [28] 17.8% | viability, T/C [29] 21.7% | viability, T/C [30] 22.3% | viability, T/C [31] 20.1% | viability, T/C [32] 20.2% | viability, T/C [33] 21.2% | viability, T/C [34] 18.1% | viability, T/C [35] 22.7% | viability, T/C [36] 24.4%

NC1c2ccccc2OC12CCN(c1cnc3c(N4CCCc5ncccc54)n[nH]c3n1)CC2 (stereo not given) + CCn1c(-c2cc(N3CCN(C)CC3)cnc2C(C)OC)c2c3cc(ccc31)-c1csc(n1)CC(NC(=O)C1CC1C)C(=O)N1CCCC(N1)C(=O)OCC(C)(C)C2
< 31.6 nM: IC50 (second compound 0.000949 µM) | IC50 (second compound 0.003 µM) | IC50 (second compound 0.00949 µM) | IC50 (second compound 0.03 µM) | IC50 (second compound 0.0949 µM) | IC50 (second compound 0.3 µM)
inactive: viability, T/C [1] 20.1% | viability, T/C [2] 18.4% | viability, T/C [3] 14.1% | viability, T/C [4] 16.4% | viability, T/C [5] 18.4% | viability, T/C [6] 18.5% | viability, T/C [7] 19.2% | viability, T/C [8] 15.6% | viability, T/C [9] 14.8% | viability, T/C [10] 16.3% | viability, T/C [11] 17.4% | viability, T/C [12] 19.8% | viability, T/C [13] 16.1% | viability, T/C [14] 15.2% | viability, T/C [15] 14.6% | viability, T/C [16] 14.7% | viability, T/C [17] 18.5% | viability, T/C [18] 16.5% | viability, T/C [19] 17.2% | viability, T/C [20] 16.4% | viability, T/C [21] 16.7% | viability, T/C [22] 16.8% | viability, T/C [23] 18.2% | viability, T/C [24] 17.9% | viability, T/C [25] 17.5% | viability, T/C [26] 18.4% | viability, T/C [27] 16.9% | viability, T/C [28] 19.2% | viability, T/C [29] 18.5% | viability, T/C [30] 18.9% | viability, T/C [31] 18.6% | viability, T/C [32] 19% | viability, T/C [33] 20.5% | viability, T/C [34] 19.2% | viability, T/C [35] 19.8% | viability, T/C [36] 22.7%
